The numbers were not newly measured in patent US20210251944A1, “METHODS FOR TREATING A CANCER RESISTANT TO AT LEAST ONE TYROSINE KINASE INHIBITOR” (Del Mar Pharmaceuticals (BC) Ltd., priority 2012, published 2021), which cites them from elsewhere.

SMILES strings stand for the structures. Read-outs that look alike come from different tables or passages of the source.

The conditions of data set [1]: cited from earlier work.
Data set [2] addresses glycogen synthase kinase-3β (GSK-3β) (Homo sapiens, UniProt P49841). The following applies: cited from earlier work.
A further data set has as its system CML. The following applies: cited from earlier work; for rate of incomplete cytogenetic responses to imatinib: CML.

Sequence of glycogen synthase kinase-3β (GSK-3β) (P49841 whole entry, species assumed): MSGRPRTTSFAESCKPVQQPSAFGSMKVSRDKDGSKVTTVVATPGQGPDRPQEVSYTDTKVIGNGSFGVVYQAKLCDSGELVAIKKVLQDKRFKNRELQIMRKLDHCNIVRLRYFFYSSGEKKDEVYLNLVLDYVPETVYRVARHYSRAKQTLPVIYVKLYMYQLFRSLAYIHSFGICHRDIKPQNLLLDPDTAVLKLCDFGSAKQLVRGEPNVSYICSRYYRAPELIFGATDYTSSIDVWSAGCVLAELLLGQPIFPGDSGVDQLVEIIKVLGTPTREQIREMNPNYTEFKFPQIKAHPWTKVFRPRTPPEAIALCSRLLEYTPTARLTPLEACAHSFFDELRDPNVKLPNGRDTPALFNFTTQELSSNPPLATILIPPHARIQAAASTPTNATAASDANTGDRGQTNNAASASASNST

As for `O[C@H]([C@H](O)[C@@H](O)CBr)[C@H](O)CBr` [Dibromodulcitol, dibromodulcitol], in data set [1], the “absorption by the oral route” value was “rapid and fairly complete”. As to `CN1C(=O)/C(=C2/C(=O)Nc3ccccc32)c2ccccc21` [Meisoindigo, meisoindigo], in data set [2], the “concentration for inhibition of glycogen synthase kinase-3β (GSK-3β)” value was 5 to 50 nM. As for `Cc1ccc(NC(=O)c2ccc(CN3CCN(C)CC3)cc2)cc1Nc1nccc(-c2cccnc2)n1` [imatinib], the “rate of incomplete cytogenetic responses to imatinib” value in the data set on CML (individuals in East Asia) is reported as roughly 50%; in the data set on CML (individuals in Europe and North America), 26%. Besides, the “overall odds ratio for resistant disease, patients with the BIM deletion polymorphism compared to those without” value in the data set with CML (chronic phase CML, first-line imatinib 400 mg/day, ELN criteria) is given as 2.94.
